Results on nine compounds are retold here after ChEMBL document CHEMBL5512598, “Current advances and development strategies of orally bioavailable PROTACs” (Eur J Med Chem, 2023).

Data set [1] can be described thus: AUC in mouse at 30 mg/kg, po. The data set is classed as ADME, organism-based. As to conditions: in vivo.
Data set [2] can be described thus: Half life in mouse at 30 mg/kg, po measured upto 24 hrs by LC-MS/MS analysis. The data set is classed as ADME, organism-based. As to conditions: in vivo.
The target of data set [3] is T1, Protein cereblon/Tyrosine-protein kinase BTK (Homo sapiens, UniProt Q06187+Q96SW2, C481S). Description: PROTAC activity at CRBN/BTK C481S mutant in human DLBCL cells assessed as degradation of BTK protein incubated for 4 hrs by HTRF assay. The data set is classed as cell-based.
A short description of data set [4]: Cmax in C57BL/6 mouse at 30 mg/kg, po by LC-MS/MS analysis. The format is ADME, organism-based. As to conditions: in vivo.
The nature of data set [5]: Tmax in C57BL/6 mouse at 30 mg/kg, po by LC-MS/MS analysis. The format is ADME, organism-based. As to conditions: in vivo.
Data set [6] in a line: Half life in C57BL/6 mouse at 30 mg/kg, po by LC-MS/MS analysis. The format is ADME, organism-based. As to conditions: in vivo.
Data set [7] is described as follows: AUC (0 to t) in C57BL/6 mouse at 30 mg/kg, po by LC-MS/MS analysis. The data set is classed as ADME, organism-based. As to conditions: in vivo.
A short description of data set [8]: Oral bioavailability in C57BL/6 mouse at 30 mg/kg by LC-MS/MS analysis. The format is ADME, organism-based. As to conditions: in vivo.
A short description of data set [9]: Oral bioavailability in BALB/c mouse at 30 mg/kg measured for 24 hrs by UPLC-MS/MS analysis. The data set is classed as ADME, organism-based. As to conditions: in vivo.
A short description of data set [10]: Cmax in BALB/c mouse at 30 mg/kg measured for 24 hrs by UPLC-MS/MS analysis. The data set is classed as ADME, organism-based. As to conditions: in vivo.
Data set [11] can be described thus: Tmax in BALB/c mouse at 30 mg/kg measured for 24 hrs by UPLC-MS/MS analysis. The data set is classed as ADME, organism-based. As to conditions: in vivo.
A short description of data set [12]: AUC (0 to t) in BALB/c mouse at 30 mg/kg measured for 24 hrs by UPLC-MS/MS analysis. The data set is classed as ADME, organism-based. As to conditions: in vivo.
Data set [13] concerns the target T1, Protein cereblon/Tyrosine-protein kinase BTK. Description: PROTAC activity at CRBN/BTK C481S mutant in human TMD8 cells assessed as degradation of BTK protein incubated for 4 hrs by HTRF assay. The format is cell-based.
Data set [14] is described as follows: Oral bioavailability in mouse. As to conditions: in vivo. The format is ADME, organism-based.
The target of data set [15] is T2, Protein cereblon/Tyrosine-protein kinase BTK (Homo sapiens, UniProt Q06187+Q96SW2). The experiment in a line: PROTAC activity at CRBN/BTK in human TMD8 cells assessed as induction of BTK degradation incubated for 24 hrs by immunoblotting analysis. The data set is classed as cell-based.
Target sequence in this assay (Q06187 whole entry): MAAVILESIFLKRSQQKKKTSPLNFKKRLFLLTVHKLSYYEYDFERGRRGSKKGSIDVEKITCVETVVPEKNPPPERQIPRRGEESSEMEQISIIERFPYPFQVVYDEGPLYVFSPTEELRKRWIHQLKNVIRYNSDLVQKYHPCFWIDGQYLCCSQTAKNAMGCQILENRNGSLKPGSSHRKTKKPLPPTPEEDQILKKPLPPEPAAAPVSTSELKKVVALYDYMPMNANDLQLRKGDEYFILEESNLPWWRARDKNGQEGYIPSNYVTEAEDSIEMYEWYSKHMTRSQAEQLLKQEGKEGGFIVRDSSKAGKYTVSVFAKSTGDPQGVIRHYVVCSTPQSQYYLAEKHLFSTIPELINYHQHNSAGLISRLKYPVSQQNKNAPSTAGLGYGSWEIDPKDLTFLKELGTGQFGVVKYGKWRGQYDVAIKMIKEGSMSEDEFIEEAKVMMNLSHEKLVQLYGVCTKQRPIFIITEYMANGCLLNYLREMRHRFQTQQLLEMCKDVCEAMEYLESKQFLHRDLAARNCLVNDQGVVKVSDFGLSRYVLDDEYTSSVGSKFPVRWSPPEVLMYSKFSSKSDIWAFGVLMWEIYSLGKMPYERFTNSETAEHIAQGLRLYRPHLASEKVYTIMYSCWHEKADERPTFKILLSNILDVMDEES
Target sequence in this assay (Q96SW2 whole entry): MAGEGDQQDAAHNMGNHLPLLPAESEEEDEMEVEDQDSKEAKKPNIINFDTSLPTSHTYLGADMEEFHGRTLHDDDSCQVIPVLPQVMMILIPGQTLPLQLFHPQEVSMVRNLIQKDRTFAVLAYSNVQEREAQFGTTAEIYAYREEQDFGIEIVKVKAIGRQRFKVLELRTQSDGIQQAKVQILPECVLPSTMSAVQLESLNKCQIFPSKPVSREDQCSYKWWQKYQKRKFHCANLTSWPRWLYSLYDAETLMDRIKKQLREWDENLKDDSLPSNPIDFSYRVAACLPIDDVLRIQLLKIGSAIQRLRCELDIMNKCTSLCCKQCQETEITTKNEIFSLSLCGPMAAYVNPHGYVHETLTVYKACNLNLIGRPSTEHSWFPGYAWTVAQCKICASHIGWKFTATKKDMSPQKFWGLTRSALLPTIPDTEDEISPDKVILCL
The target in data set [16] is T2, Protein cereblon/Tyrosine-protein kinase BTK. The experiment in a line: PROTAC activity at CRBN/BTK in human TMD8 cells assessed as maximal degradation of BTK protein incubated for 24 hrs by immunoblotting analysis relative to control. The data set is classed as cell-based.
Target sequence in this assay (Q06187 2-659 limits assumed): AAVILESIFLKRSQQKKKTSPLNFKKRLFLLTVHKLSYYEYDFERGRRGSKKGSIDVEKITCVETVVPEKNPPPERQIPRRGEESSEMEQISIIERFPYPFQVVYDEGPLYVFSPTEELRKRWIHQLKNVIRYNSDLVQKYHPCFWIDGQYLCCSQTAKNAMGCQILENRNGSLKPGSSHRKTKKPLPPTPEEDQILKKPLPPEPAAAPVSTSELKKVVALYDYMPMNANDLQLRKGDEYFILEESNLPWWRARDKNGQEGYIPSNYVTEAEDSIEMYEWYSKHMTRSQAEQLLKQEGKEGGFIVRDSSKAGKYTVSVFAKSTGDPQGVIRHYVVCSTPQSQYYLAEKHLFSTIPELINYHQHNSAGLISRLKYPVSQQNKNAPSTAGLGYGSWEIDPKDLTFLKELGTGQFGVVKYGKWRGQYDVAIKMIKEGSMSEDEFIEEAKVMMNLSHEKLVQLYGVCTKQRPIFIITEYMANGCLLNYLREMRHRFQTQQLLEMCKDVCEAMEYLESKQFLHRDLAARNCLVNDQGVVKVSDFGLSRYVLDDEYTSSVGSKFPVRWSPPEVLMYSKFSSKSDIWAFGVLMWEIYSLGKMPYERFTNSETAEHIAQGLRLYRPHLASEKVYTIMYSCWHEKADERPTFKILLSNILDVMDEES
Target sequence in this assay (Q96SW2 whole entry partner): as the sequence (Q96SW2 whole entry) above
Data set [17] in a line: Cmax in mouse at 10 mg/kg, po measured upto 24 hrs by LC-MS/MS analysis. As to conditions: in vivo. The data set is classed as ADME, organism-based.
In data set [18] the target is von Hippel-Lindau disease tumor suppressor/Tyrosine-protein kinase BTK (Homo sapiens, UniProt Q06187+P40337, C481S). The experiment in a line: PROTAC activity at VHL/BTK C481S mutant in human TMD8 cells assessed as induction of BTK degradation incubated for 24 hrs by immunoblotting analysis. The data set is classed as cell-based.
Data set [19] deals with von Hippel-Lindau disease tumor suppressor/Tyrosine-protein kinase BTK (Homo sapiens), Q06187+P40337 [C481S]. Description: PROTAC activity at VHL/BTK C481S mutant in human TMD8 cells assessed as maximum degradation of protein relative to control. The data set is classed as cell-based.
Data set [20] deals with von Hippel-Lindau disease tumor suppressor/Polycomb protein EED (Homo sapiens, UniProt O75530+P40337). Description: PROTAC activity at VHL/EED in human DB cells assessed as degradation of EED protein expression incubated for 24 hrs by Western blotting analysis. The data set is classed as cell-based.
In data set [21] the target is von Hippel-Lindau disease tumor suppressor/Histone-lysine N-methyltransferase EZH2 (Homo sapiens, UniProt Q15910+P40337). Description: PROTAC activity against VHL/wild type EZH2 in human DB cells assessed as degradation of EZH2 protein expression incubated for 24 hrs by Western blot analysis. The format is cell-based.
For data set [22], the target named is von Hippel-Lindau disease tumor suppressor/Histone-lysine N-methyltransferase EZH2 (Homo sapiens, UniProt Q15910+P40337, Y641N). Description: PROTAC activity against VHL/EZH2 Y641N mutant in human DB cells assessed as degradation of EZH2 protein expression incubated for 24 hrs by Western blot analysis. The format is cell-based.
A short description of data set [23]: Oral bioavailability in Sprague-Dawley rat at 40 mg/kg measured up to 24 hrs by LC-MS analysis. The data set is classed as ADME, organism-based. As to conditions: in vivo.
A short description of data set [24]: Cmax in Sprague-Dawley rat at 40 mg/kg, po measured after 24 hrs by LC-MS/MS analysis. The format is ADME, organism-based. As to conditions: in vivo.
The nature of data set [25]: Tmax in Sprague-Dawley rat at 40 mg/kg, IG measured up to 24 hrs by LC-MS/MS analysis. As to conditions: in vivo, po. The data set is classed as ADME, organism-based.
Data set [26] in a line: Half life in Sprague-Dawley rat at 40 mg/kg, po measured after 24 hrs by LC-MS/MS analysis. The data set is classed as ADME, organism-based. As to conditions: in vivo.
Data set [27] is described as follows: AUC (0 to t) in Sprague-Dawley rat at 40 mg/kg, IG measured up to 24 hrs by LC-MS/MS analysis. As to conditions: in vivo, po. The format is ADME, organism-based.
The target of data set [28] is Protein cereblon/Leucine-rich repeat serine/threonine-protein kinase 2 (Homo sapiens, UniProt Q5S007+Q96SW2). The experiment in a line: PROTAC activity at CRBN/LRRK2 in human MOLT-4 cells assessed as induction of LRRK2 degradation at 1 uM by Western blot analysis relative to control. The data set is classed as cell-based.

Each structure is given as a SMILES string.

T1 sequence (Q06187 2-659 C481S limits assumed, stated change not applied): as the sequence (Q06187 2-659 limits assumed) above, with C480S counted along it
T1 sequence (Q96SW2 whole entry, stated change not applied): as the sequence (Q96SW2 whole entry) above
Sequence of von Hippel-Lindau disease tumor suppressor/Histone-lysine N-methyltransferase EZH2 (Homo sapiens, UniProt Q15910+P40337) (Q15910 whole entry): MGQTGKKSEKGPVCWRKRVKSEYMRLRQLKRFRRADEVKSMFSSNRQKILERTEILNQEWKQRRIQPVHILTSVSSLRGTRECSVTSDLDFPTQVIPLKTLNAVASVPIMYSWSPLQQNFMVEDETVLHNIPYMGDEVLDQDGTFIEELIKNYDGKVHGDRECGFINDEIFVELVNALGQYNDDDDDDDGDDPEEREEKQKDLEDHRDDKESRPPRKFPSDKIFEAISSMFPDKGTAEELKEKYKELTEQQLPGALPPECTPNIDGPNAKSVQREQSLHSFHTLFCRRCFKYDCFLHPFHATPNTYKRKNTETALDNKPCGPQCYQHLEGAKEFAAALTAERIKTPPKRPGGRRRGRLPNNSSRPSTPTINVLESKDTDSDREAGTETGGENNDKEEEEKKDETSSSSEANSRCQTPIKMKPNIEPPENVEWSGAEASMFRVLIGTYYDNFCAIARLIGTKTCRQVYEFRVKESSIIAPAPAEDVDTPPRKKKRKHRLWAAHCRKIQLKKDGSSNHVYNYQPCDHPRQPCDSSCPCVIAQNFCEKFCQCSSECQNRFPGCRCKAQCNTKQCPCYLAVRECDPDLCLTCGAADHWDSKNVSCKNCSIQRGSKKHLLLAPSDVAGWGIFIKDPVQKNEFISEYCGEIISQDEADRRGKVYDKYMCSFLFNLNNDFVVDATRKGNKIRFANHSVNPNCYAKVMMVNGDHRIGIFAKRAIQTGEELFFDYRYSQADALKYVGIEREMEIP
Sequence of von Hippel-Lindau disease tumor suppressor/Histone-lysine N-methyltransferase EZH2 (Homo sapiens, UniProt Q15910+P40337) (P40337 whole entry): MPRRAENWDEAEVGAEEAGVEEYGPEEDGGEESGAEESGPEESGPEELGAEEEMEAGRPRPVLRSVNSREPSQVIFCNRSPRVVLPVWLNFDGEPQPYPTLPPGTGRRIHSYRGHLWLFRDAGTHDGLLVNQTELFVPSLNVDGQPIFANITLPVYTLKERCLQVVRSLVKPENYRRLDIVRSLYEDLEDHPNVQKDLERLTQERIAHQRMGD
Sequence of von Hippel-Lindau disease tumor suppressor/Polycomb protein EED (O75530 whole entry): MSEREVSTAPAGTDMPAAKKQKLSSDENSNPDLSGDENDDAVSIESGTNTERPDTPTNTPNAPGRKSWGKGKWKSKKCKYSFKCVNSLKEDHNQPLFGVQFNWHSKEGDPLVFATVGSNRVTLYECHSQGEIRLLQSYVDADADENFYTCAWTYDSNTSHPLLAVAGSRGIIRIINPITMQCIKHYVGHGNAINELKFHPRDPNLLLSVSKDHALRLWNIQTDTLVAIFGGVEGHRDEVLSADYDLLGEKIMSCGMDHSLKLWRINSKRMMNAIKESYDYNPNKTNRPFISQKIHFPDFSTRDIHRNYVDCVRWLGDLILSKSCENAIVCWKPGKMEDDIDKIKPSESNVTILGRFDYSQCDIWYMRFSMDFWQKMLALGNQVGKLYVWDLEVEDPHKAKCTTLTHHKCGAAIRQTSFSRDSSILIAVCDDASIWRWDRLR
Sequence of von Hippel-Lindau disease tumor suppressor/Polycomb protein EED (P40337 whole entry): as the sequence (P40337 whole entry) above

The compound `O=C1CC[C@H](N2Cc3cc(N4CCN(CC5CCN(c6ccc([C@@H]7c8ccc(O)cc8CC[C@@H]7c7ccccc7)cc6)CC5)CC4)ccc3C2=O)C(=O)N1` [VEPDEGESTRANT] had an AUC in [1] of 5720 ng·h/mL. The compound further showed a half-life in data set [2] of 28 h.

As for `CN1CCN([C@@H]2CCCN(c3cnc(C(N)=O)c(Nc4ccc(C5CCN(CC6CCN(c7ccc(C(=O)N[C@H]8CCC(=O)NC8=O)nc7)CC6)CC5)cc4)n3)C2)C1=O` [NX-5948], the DC50 in data set [3] came to 0.32 nM.

Turning to `CNc1nc(Nc2ccc(C(=O)N3CCN(C[C@H]4CC[C@H](CSC(C)(C)[C@H](NC(=O)C5(F)CC5)C(=O)N5C[C@H](O)C[C@H]5C(=O)NCc5ccc(-c6scnc6C)cc5)CC4)CC3)cc2OC)ncc1Cl`, in [4], the Cmax was 3620 ng/mL. Also, the Tmax in data set [5] stood at 2 h. The compound further had a half-life in data set [6] of 21.9 h. Also, in [7], the AUC(0-t) was determined as 21300 ng·h/mL. In data set [8], this compound registered a bioavailability of 15%.

The compound `Cc1ncsc1-c1ccc(CNC(=O)[C@@H]2C[C@@H](O)CN2C(=O)[C@@H](NC(=O)COCCCCOc2ccc(C3CCN(C4=Nn5c(nnc5C(F)(F)F)CC4)CC3)cc2)C(C)(C)C)cc1` displayed a bioavailability in [9] of 23%. This compound showed a Cmax in data set [10] of 7060 ng/mL. Further, the Tmax in data set [11] is 1.67 h. Besides, in [12], the AUC(0-t) at 24 h came out at 18000 ng·h/mL.

Take `NC(=O)c1ncc(N2CCCCC2)nc1Nc1ccc(C2CCN(C[C@@H]3CCN(c4ccc5c(c4)C(=O)N(C4CCC(=O)NC4=O)C5=O)C3)CC2)cc1` (stereo partly drawn): the DC50 worked out at 13 nM in data set [13] and 4.5 nM in data set [15]. In [14], the bioavailability worked out at 8%. The Emax in data set [16] was 86%. This compound yielded a Cmax in [17] of 1300 nM.

For `CN1CCN([C@@H]2CCCN(c3cnc(C(N)=O)c(Nc4ccc(C5CCN(C(=O)CCOCCNc6cccc7c6C(=O)N(C6CCC(=O)NC6=O)C7=O)CC5)cc4)n3)C2)C1=O` (stereo partly drawn), in data set [18], the DC50 was 7 nM. Besides, the Emax in [19] amounted to 86%.

`Cc1ncsc1-c1ccc(CNC(=O)[C@@H]2C[C@@H](O)CN2C(=O)[C@@H](NC(=O)[C@H]2C[C@@H](NC(=O)c3ccc(-c4cnc(NCc5ccco5)n5cnnc45)cc3)C2)C(C)(C)C)cc1`: the DC50 in data set [20] was determined as 111 nM; in data set [21] it was 275 nM; in data set [22], 275 nM.

`N#Cc1cccc(-c2ccc(=O)n(Cc3cccc(-c4ncc(OCC5CCN(CC(=O)N6CCN(c7ccc8c(c7)C(=O)N(C7CCC(=O)NC7=O)C8=O)CC6)CC5)cn4)c3)n2)c1` (stereo not drawn) showed a bioavailability in data set [23] of 0.7%. Also, the Cmax in data set [24] stood at 8.47 ng/mL. Also, the Tmax in data set [25] amounted to 1.75 h. Further, in data set [26], the half-life was 15.8 h. In [27], this compound had an AUC(0-t) at 24 h of 74.2 ng·h/mL.

Turning to `C[C@@H]1C=C2C=C[C@@H](C)[C@@H](CC[C@@H]3C[C@@H](O)CC(=O)O3)[C@@H]2[C@H](OC(=O)NCCOCCOCCNc2cccc3c2C(=O)N(C2CCC(=O)NC2=O)C3=O)C1` (stereo partly drawn), in data set [28], the Emax was found to be 44%.
